# In patent US20190060249A1 (priority 2017, published 2019):
# How the values were obtained:
# Human salivary cells = assay: Salisphere formation assay, human; format: cell-based; conditions: 25 μM Alda-341; cells from normal salivary gland tissue of head and neck cancer patients
# Procedure: (§1) Salisphere formation assay: Cells isolated from mouse submandibular glands (SMG) were FACS sorted using cell surface markers EpCAM and CD24 as previously described and seeded on matrigel (BD Biosciences, BD356235). Cells were grown in DMEM/F12+GlutaMax (Gibco, 10565-018) media containing 10% FBS, 1× anti-anti, 1% N2 supplement (Gibco), 20 ng/mL […] (Sigma-Aldrich), 20 ng/mL fibroblast growth factor-2 (Sigma-Aldrich), 10 μg/mL insulin (Sigma-Aldrich), 1 μM dexamethasone (Sigma-Aldrich), 10 μM […] (Stem Cell Technologies). Spheres were passaged every 7 days by dissociating into single cells by incubating in 1 mg/mL dispase (BD Biosciences) for 20 minutes and 0.25% trypsin-EDTA for 20 minutes. Spheres were grown for 7 days and imaged with a BZ-X710 Keyence microscope using the z-stack function. Images were stitched together into a single image and analyzed using ImageJ (NIH) to quantify sphere number and area. Experiments were repeated at least 3 independent times.
# Sphere number per well quantified by Image J (NIH). 4 replicates per group.
# Salivary gland tissue dissociation: Mouse and human salivary gland cells were isolated as previously described in, Szlavik, V., Szabo, B., Vicsek, T., Barabas, J., Bogdan, S., Gresz, V., Varga, G., O'Connell, B., and Vag, J. (2008) Differentiation of primary human submandibular gland cells cultured on basement membrane extract. […]
# ALDH1A1 = biological target: T1, ALDH1A1 (Homo sapiens, UniProt P00352); assay: ALDH fluorescence-coupled enzymatic assay, all-trans-retinal substrate, ALDH1A1; format: biochemical
# T1 sequence (P00352 1-501): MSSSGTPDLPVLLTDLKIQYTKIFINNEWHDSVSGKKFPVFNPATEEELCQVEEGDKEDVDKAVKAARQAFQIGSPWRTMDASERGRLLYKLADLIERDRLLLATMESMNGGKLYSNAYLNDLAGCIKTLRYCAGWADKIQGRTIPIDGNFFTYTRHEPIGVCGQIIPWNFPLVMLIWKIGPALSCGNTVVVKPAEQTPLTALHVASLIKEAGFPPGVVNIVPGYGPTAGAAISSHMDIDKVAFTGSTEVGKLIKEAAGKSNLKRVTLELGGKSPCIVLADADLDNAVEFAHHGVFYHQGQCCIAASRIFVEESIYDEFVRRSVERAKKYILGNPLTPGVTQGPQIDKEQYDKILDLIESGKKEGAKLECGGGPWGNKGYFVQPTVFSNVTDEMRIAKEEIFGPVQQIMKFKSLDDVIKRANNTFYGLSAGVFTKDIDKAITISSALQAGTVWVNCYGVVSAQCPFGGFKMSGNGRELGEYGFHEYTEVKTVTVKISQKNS
# Procedure: (§2) Assay conditions were modified from the original enzyme assay protocol above using 50 mM NaPPi buffer (pH 7.4), 2.5 mM NAD^+, 10 mM acetaldehyde or all-trans-retinal substrate with the addition of 1 U/mL diaphorase and 0.1 mM resazurin for the secondary reaction. Measurements were collected in triplicate at 25° C.
# ALDH1A2 = biological target: T2, ALDH1A2 (Homo sapiens, UniProt O94788); assay: ALDH fluorescence-coupled enzymatic assay, all-trans-retinal substrate, ALDH1A2; format: biochemical
# T2 sequence (O94788 1-518): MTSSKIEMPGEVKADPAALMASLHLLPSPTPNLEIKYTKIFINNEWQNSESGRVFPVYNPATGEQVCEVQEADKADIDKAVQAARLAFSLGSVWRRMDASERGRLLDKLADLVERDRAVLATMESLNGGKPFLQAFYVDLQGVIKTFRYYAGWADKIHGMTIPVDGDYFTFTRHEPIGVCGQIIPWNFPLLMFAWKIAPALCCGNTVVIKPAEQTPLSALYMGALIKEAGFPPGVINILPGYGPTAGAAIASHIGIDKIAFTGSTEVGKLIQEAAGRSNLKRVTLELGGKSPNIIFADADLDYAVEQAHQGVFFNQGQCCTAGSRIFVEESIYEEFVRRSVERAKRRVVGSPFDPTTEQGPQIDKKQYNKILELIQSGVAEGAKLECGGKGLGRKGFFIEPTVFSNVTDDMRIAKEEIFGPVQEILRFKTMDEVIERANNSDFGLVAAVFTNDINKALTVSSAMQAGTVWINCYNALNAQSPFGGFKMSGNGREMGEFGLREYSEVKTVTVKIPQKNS
# Procedure: as §2
# [1] = C57BL/6 female mice irradiated with 30 Gy, treated 8 weeks with Alda-341
# Procedure: Pathology: A complete necropsy was performed by a certified veterinarian. Tissues from brain, heart, kidney, liver, esophagus, thymus, trachea, thyroid, lung, spleen, pancreas, trachea, stomach, pancreas, intestines, bladder, uterus and ovary were fixed on slides and scored for inflammation, necrosis, and apoptosis from a scale of 0 to 5. A complete blood count and blood chemistry panel was assessed by Stanford's Veterinary Services Center.
# [2] = tested on: mouse WT EpCAM+/CD24+-sorted cells; assay: Salisphere formation assay, mouse; format: cell-based; conditions: 25 μM Alda-341 over 7 days
# Procedure: as §1
# Sphere number per well quantified by Image J (NIH). 6 replicates per group.
structure (smiles),measurement,setting,value
"C=C(C)[C@H]1CC=C(C)CC1 [Alda-341, D-limonene]",more salispheres than untreated cells,Human salivary cells,about 30%
same,catalytic activity of all trans-retinal in ALDH1A1,ALDH1A1,did not increase
same,catalytic activity of all trans-retinal in ALDH1A2,ALDH1A2,did not increase
same,complete blood count and blood chemistry panel,[1],normal complete blood count and blood chemistry panel
same,increase in total salisphere number compared to vehicle control,[2],~15%
